Source: PubChem BioAssay (NCI)
Several values for one entry are separate records, joined by “and”; a condition that tells them apart may be missing. Identical values can stand only once.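 In this assay, cells in 96-well plates receive the compound at five concentrations for 48 hours. Endpoints are linearly interpolated between the surrounding concentrations. Here, GI50 denotes the concentration required for 50% inhibition of growth. Definition used: TGI = concentration required for complete inhibition of growth.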

Experiments:
Test in all cases: NCI tumour cell line growth inhibition, 48 h
HOP-92 NSCLC = system: HOP-92 NSCLC
M14 melanoma = system: M14 melanoma
MDA-MB-435 = system: MDA-MB-435
NCI-H226 lung = system: NCI-H226 lung
OVCAR-5 ovarian = system: OVCAR-5 ovarian
RPMI-8226 leukemia = system: RPMI-8226 leukemia
SK-MEL-28 melanoma = system: SK-MEL-28 melanoma
SK-OV-3 ovarian = system: SK-OV-3 ovarian
SNB-75 CNS = system: SNB-75 CNS
U251 CNS = system: U251 CNS

| SMILES | GI50 (HOP-92 NSCLC) | TGI (HOP-92 NSCLC) | GI50 (M14 melanoma) | GI50 (MDA-MB-435) | GI50 (NCI-H226 lung) | GI50 (OVCAR-5 ovarian) | GI50 (RPMI-8226 leukemia) | TGI (RPMI-8226 leukemia) | GI50 (SK-MEL-28 melanoma) | GI50 (SK-OV-3 ovarian) | GI50 (SNB-75 CNS) | GI50 (U251 CNS) | TGI (M14 melanoma) [µM] | TGI (MDA-MB-435) [µM] | TGI (NCI-H226 lung) [µM] | TGI (OVCAR-5 ovarian) [µM] | TGI (SK-MEL-28 melanoma) [µM] | TGI (SK-OV-3 ovarian) [µM] | TGI (SNB-75 CNS) [µM] | TGI (U251 CNS) [µM] |
| --- | --- | --- | --- | --- | --- | --- | --- | --- | --- | --- | --- | --- | --- | --- | --- | --- | --- | --- | --- | --- |
| COC(C(=O)C(O)C(C)O)C1Cc2cc3cc(OC4CC(OC5CC(O)C(O)C(C)O5)C(O)C(C)O4)c(C)c(O)c3c(O)c2C(=O)C1OC1CC(OC2CC(O)C(OC3CC(C)(O)C(O)C(C)O3)C(C)O2)C(O)C(C)O1 (configuration not stated) | 0.0112 µg/mL and 0.00321 µg/mL | 0.08 µg/mL and 0.082 µg/mL | 0.047 µg/mL and 0.0293 µg/mL | 0.0121 µg/mL and 0.339 µg/mL | 0.0112 µg/mL and 0.000196 µg/mL | 0.013 µg/mL and 0.0036 µg/mL | 0.0112 µg/mL and 0.00164 µg/mL | 0.507 µg/mL and 0.191 µg/mL | 0.0112 µg/mL and 0.000611 µg/mL | 0.0163 µg/mL and 0.0045 µg/mL | 0.0112 µg/mL and 0.000782 µg/mL | 0.0112 µg/mL and 0.000643 µg/mL |  |  |  |  |  |  |  |  |
| CCN(Cc1ccccc1Cl)c1ccc(CO)c(Cl)c1 | 0.932 µM | 8.25 µM | 15.3 µM | 9.19 µM | 0.0295 µM | 0.206 µM | 1.91 µM | 19 µM | 11.8 µM | 8.82 µM | 7.13 µM | 0.943 µM | 31.7 | 23.9 | 0.122 | 0.789 | 24.7 | 21.2 | 21.8 | 15 |
| c1ccc(CN2CCC3(CC2)SSC2(CCN(Cc4ccccc4)CC2)SS3)cc1 |  | > 100 µM |  |  |  |  |  | > 100 µM |  |  |  |  | > 100 | > 100 | > 100 | > 100 | > 100 | > 100 | > 100 | > 100 |
| CCCCCCC/C=C/[C@H]1O[C@]2(O)C(=O)C=C3C[C@@H](O[C@@H]4O[C@H](CO)[C@@H](O)C(O)[C@@H]4O)C[C@@H]3[C@H]2C=C1C (some centres not stated) | 3.3 µM | 11.3 µM | 1.58 µM | 1.21 µM | 4.52 µM | 4.74 µM | 0.711 µM | 1.98 µM | 3.97 µM | 5.95 µM | 1.24 µM | 1.1 µM | 6.35 | 5.69 | 13.7 | 10.8 | 8.62 | 16.4 | 5.93 | 4.49 |
| CC1=C(C(=O)Nc2ccc3[nH]ncc3c2)C(c2ccc(Cl)c(Cl)c2)CC(=O)N1 (configuration not stated) | 0.277 µM | > 7.6 µM | > 25 µM | > 25 µM | 6.09 µM | > 25 µM | > 25 µM | > 25 µM | > 25 µM | > 25 µM | 2.25 µM | > 25 µM | > 25 | > 25 | > 25 | > 25 | > 25 | > 25 | > 19.1 | > 25 |
| COc1ccc2c(Cc3c4ccccc4cc4ccccc34)cncc2c1O |  | 13.2 µM |  |  |  |  |  | 17 µM |  |  |  |  | 15.3 | 0.622 | 11.7 | > 57.4 | 72.3 | > 40.5 | 29.4 | 7.71 |
| NC(=S)N/N=C/c1ccc(N)cn1 |  | > 10 µM |  |  |  |  |  | > 10 µM |  |  |  |  | > 7.38 | > 10 | > 10 | > 10 | > 10 | > 10 | > 10 | > 10 |
| O=c1c2cccc(F)c2sc2c(N3CCNCC3)nc3ccccc3c12 | 1.11 µM | 2.6 µM | 1.71 µM | 1.74 µM | 1.65 µM | 1.59 µM | 1.69 µM | 3.73 µM | 1.88 µM | 1.64 µM | 1.16 µM | 1.39 µM | 3.17 | 3.2 | 3.4 | 3.03 | 3.35 | 3.41 | 2.41 | 2.96 |
| O=[N+]([O-])c1ccc(Sc2nc(Cl)nc(NC3CCCC3)n2)cc1 | > 10 µM | > 10 µM | > 10 µM | > 10 µM | > 10 µM | > 10 µM | > 10 µM | > 10 µM | 7 µM | > 10 µM | > 10 µM | > 10 µM | > 10 | > 10 | > 10 | > 10 | > 10 | > 10 | > 10 | > 10 |
| COC1=C(Br)C(O)C2(C=C1Br)CC(C(=O)NCCCCNC(=O)C1=NOC3(C=C(Br)C(OC)=C(Br)C3O)C1)=NO2 (configuration not stated) |  | 94.9 µM |  |  |  |  |  | 50.5 µM |  |  |  |  | 37 | 49.8 | 41.2 | > 100 | > 100 | > 100 | 61.2 | > 100 |
| C=C1CCC2C3(C)COC(c4c(OC)cccc4OC)OC3CCC2(C)C1C/C=C1/C(=O)OCC1O (configuration not stated) | 2.92 µM | 8.51 µM | 2.96 µM | 2.88 µM | 2.42 µM | 3.39 µM | 2.01 µM | 5.67 µM | 1.93 µM | 5.71 µM | 2.55 µM | 1.91 µM | 9.01 | 10.8 | 5.81 | 8.63 | 4.05 | 20.3 | 14.5 | 4.36 |
| CC[C@@H](C(=O)[C@H](C)[C@H](O)[C@@H](C)[C@H]1O[C@H]([C@@H](CC)C(=O)O)CC[C@H]1C)C1O[C@]2(C=C[C@@H](O)[C@]3(CC[C@@](C)([C@H]4CC[C@](O)(CC)[C@H](C)O4)O3)O2)[C@H](C)C[C@@H]1C (some centres not stated) | 0.69 µM | 5.78 µM | 1.13 µM | 1.08 µM | 0.598 µM | 1.07 µM | 0.171 µM | 3.07 µM | 0.84 µM | 4.1 µM | 0.777 µM | 0.113 µM | 2.89 | 2.56 | 5.83 | 69.2 | 2.09 | 51.1 | 4.63 | 11.5 |
| Cc1ccc(/C=C/C(=N/N=C(N)N)c2ccccc2)cc1 | 2.25 µM | 8.42 µM | 1.67 µM | 0.432 µM | 3.09 µM | 2.97 µM | 2.3 µM | 7.98 µM | 3.95 µM | 2.99 µM | 2.04 µM | 3.1 µM | 3.95 | 4.93 | 12.6 | 12.4 | 15.8 | 12.2 | 7.41 | 12.5 |
| O=C(O)C1C2C=CC(C2)C1C(=O)O (configuration not stated) | > 100 µM | > 100 µM | > 100 µM | > 100 µM | > 100 µM | > 100 µM | > 100 µM | > 100 µM | > 100 µM | > 100 µM | > 100 µM | > 100 µM | > 100 | > 100 | > 100 | > 100 | > 100 | > 100 | > 100 | > 100 |
| COc1cc2oc(-c3ccc(O)cc3O)c(CC=C(C)C)c(=O)c2c(O)c1/C=C/C(C)C |  | 7.3 µM |  |  |  |  |  | 8.73 µM |  |  |  |  | 3.56 | 4.49 | 9.98 | 18.7 | 13.9 | 20.6 | 9.04 | 6.12 |
| CCCCCCCCCCC/C=C\C[C@H](O)C/C=C1/C(=O)C=C[C@@H]1C/C=C\CCCC(=O)OC | 5.43 µM | 11.9 µM | 1.04 µM | 0.71 µM | 0.732 µM | 1.7 µM | 0.534 µM | 1.62 µM | 0.84 µM | 5.78 µM | 2.07 µM | 0.581 µM | 4.32 | 1.8 | 1.76 | 8.58 | 2.31 | 21.5 | 6.79 | 1.53 |
| C[N+](C)(CCCCCC[N+](C)(C)CCCN1C(=O)c2cc3ccccc3cc2C1=O)CCCN1C(=O)c2cc3ccccc3cc2C1=O | > 37.5 µM | > 37.5 µM | > 37.5 µM | > 37.5 µM | > 37.5 µM | > 37.5 µM | > 37.5 µM | > 37.5 µM | > 37.5 µM | > 37.5 µM | > 37.5 µM | > 37.5 µM | > 37.5 | > 37.5 | > 37.5 | > 37.5 | > 37.5 | > 37.5 | > 37.5 | > 37.5 |
| COc1cccc(-n2cc(-c3nc(Nc4cc(C)[nH]n4)c4ccccc4n3)nn2)c1 | 1.67 µM | 9.53 µM | 1.1 µM | 2.24 µM | 4.02 µM | 3.51 µM | 3.57 µM | 13.8 µM | 6.05 µM | 2.34 µM | 1.15 µM | 1.87 µM | 9.51 | 9.18 | 10.6 | 12 | 13.9 | 10.8 | 7.9 | 9.32 |
| C[C@]12CC[C@H]3[C@@H](CCC4=CC(=O)CC[C@@]43C)[C@@H]1CC[C@@H]2C(=O)COS(=O)(=O)c1ccc(Br)cc1 |  | 18.3 µM |  |  |  |  |  | 12 µM |  |  |  |  | 23.8 | 32.8 | 39.3 | 35.2 | 43.5 | 38.1 | 41.8 | 26.2 |
